# Results reported in patent US20250382332A1, “NOVEL ALPHA-FACTOR BASED PEPTIDES WITH ANTIFUNGAL ACTIVITY” (INVAIO SCIENCES, INC., priority 2024, published 2025).
# Peptide text beside a SMILES is read from it.
# Test system: Botrytis cinerea (B05.10)
# Assay: Resazurin antifungal assay of 180 alpha-factor peptide variants towards Botrytis (Example 2)
# Assay type: cell-based
# Set-up: key to active against Botrytis at 15 μM / active against Botrytis at 10 μM: Peptides that showed greater than 90% inhibition were considered active against Botrytis
# Conditions: for Inhibition at 10 μM / Inhibition at 15 μM / Inhibition at 20 μM / Inhibition at 50 μM / Inhibition at 100 μM: % inhibition of fungal growth, Botrytis conidia, resazurin; for Inhibition at 10 μM: peptide 10 μM; for Inhibition at 20 μM: peptide 20 μM; for Inhibition at 50 μM: peptide 50 μM; for Inhibition at 100 μM: peptide 100 μM
# Procedure, shortened: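 Resazurin viability read-out (570/620 nm fluorescence) after a 24 h, 20° C incubation of B05.10 conidia, 5000 per well, with peptide at final 10-100 μM. Growth inhibition (%) was derived by subtracting conidia-only fluorescence; four replicates per treatment.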
Compound,Inhibition at 10 μM [%],Inhibition at 15 μM (peptide 15 μM) [%],Inhibition at 20 μM [%],Inhibition at 50 μM [%],Inhibition at 100 μM [%],active against Botrytis at 15 μM (peptide 15 μM)
CSCC[C@H](NC(=O)[C@@H]1CCCN1C(=O)[C@H](CCC(N)=O)NC(=O)CNC(=O)[C@@H]1CCCN1C(=O)[C@H](CCCCN)NC(=O)[C@H](Cc1ccccc1)NC(=O)[C@H](CCCNC(=N)N)NC(=O)[C@H](CC(C)C)NC(=O)[C@@H](NC(=O)[C@H](Cc1c[nH]cn1)NC(=O)[C@@H](N)CCCCN)[C@@H](C)O)C(=O)N[C@@H](Cc1ccc(O)cc1)C(=O)O [compound 80] (H-KHTLRFKPGQPMY-OH; N-terminus and C-terminus assumed),<90,<90,99.56,100,100,
CSCC[C@H](NC(=O)[C@@H]1CCCN1C(=O)[C@H](CCC(N)=O)NC(=O)CNC(=O)[C@@H]1CCCN1C(=O)[C@H](Cc1ccc(O)cc1)NC(=O)[C@H](CC(C)C)NC(=O)[C@H](CCC(N)=O)NC(=O)[C@@H](NC(=O)[C@H](Cc1c[nH]c2ccccc12)NC(=O)[C@H](CCC(=O)O)NC(=O)[C@@H](N)CCCCN)C(C)C)C(=O)N[C@@H](Cc1ccc(O)cc1)C(=O)O [compound 125] (H-KEWVQLYPGQPMY-OH; N-terminus and C-terminus assumed),,,,<90,<90,
CSCC[C@H](NC(=O)[C@@H]1CCCN1C(=O)[C@H](CCC(N)=O)NC(=O)CNC(=O)[C@@H]1CCCN1C(=O)[C@H](Cc1c[nH]c2ccccc12)NC(=O)[C@H](Cc1ccccc1)NC(=O)[C@H](CCC(N)=O)NC(=O)[C@@H](NC(=O)[C@H](CO)NC(=O)[C@H](Cc1c[nH]cn1)NC(=O)[C@@H](N)Cc1c[nH]c2ccccc12)C(C)C)C(=O)N[C@@H](Cc1ccc(O)cc1)C(=O)O [compound 178] (H-WHSVQFWPGQPMY-OH; N-terminus and C-terminus assumed),,,,<90,97.30,
CC[C@H](C)[C@H](NC(=O)[C@H](CCC(N)=O)NC(=O)[C@H](CC(C)C)NC(=O)[C@H](Cc1c[nH]c2ccccc12)NC(=O)[C@H](CO)NC(=O)[C@@H](N)CCCCN)C(=O)N[C@@H](CCCCN)C(=O)N[C@@H](CC(N)=O)C(=O)NCC(=O)N[C@@H](CCC(N)=O)C(=O)N1CCC[C@H]1C(=O)N[C@@H](CCSC)C(=O)N[C@@H](Cc1ccc(O)cc1)C(=O)O [compound 152] (H-KSWLQIKNGQPMY-OH; N-terminus and C-terminus assumed),,,,<90,<90,
CSCC[C@H](NC(=O)[C@@H]1CCCN1C(=O)[C@H](CCC(N)=O)NC(=O)CNC(=O)[C@@H]1CCCN1C(=O)[C@H](CCCCN)NC(=O)[C@H](CC(C)C)NC(=O)[C@H](CCC(=O)O)NC(=O)CNC(=O)[C@H](Cc1c[nH]c2ccccc12)NC(=O)[C@H](Cc1c[nH]cn1)NC(=O)[C@@H]1CCCN1)C(=O)N[C@@H](Cc1ccc(O)cc1)C(=O)O [compound 143] (H-PHWGELKPGQPMY-OH; N-terminus and C-terminus assumed),,,,<90,<90,
CSCC[C@H](NC(=O)[C@@H]1CCCN1C(=O)[C@H](CCC(N)=O)NC(=O)CNC(=O)[C@@H]1CCCN1C(=O)[C@H](CCCCN)NC(=O)[C@H](Cc1ccccc1)NC(=O)[C@H](CCCNC(=N)N)NC(=O)[C@H](CC(C)C)NC(=O)[C@H](CC(=O)O)NC(=O)[C@H](Cc1c[nH]cn1)NC(=O)[C@@H](N)CCCCN)C(=O)N[C@@H](Cc1ccc(O)cc1)C(=O)O [compound 29] (H-KHDLRFKPGQPMY-OH; N-terminus and C-terminus assumed),,,,<90,97.77,
CSCC[C@H](NC(=O)[C@@H]1CCCN1C(=O)[C@H](CCC(N)=O)NC(=O)CNC(=O)[C@@H]1CCCN1C(=O)[C@H](CCCCN)NC(=O)[C@H](Cc1ccccc1)NC(=O)[C@H](CCCNC(=N)N)NC(=O)[C@H](CC(C)C)NC(=O)[C@H](Cc1c[nH]c2ccccc12)NC(=O)[C@H](Cc1c[nH]cn1)NC(=O)[C@@H]1CCCN1)C(=O)N[C@@H](Cc1ccc(O)cc1)C(=O)O [compound 5] (H-PHWLRFKPGQPMY-OH; N-terminus and C-terminus assumed),<90,,<90,100,100,
CC[C@H](C)[C@H](NC(=O)[C@H](CCCCN)NC(=O)[C@H](CC(C)C)NC(=O)[C@@H](NC(=O)[C@H](Cc1c[nH]cn1)NC(=O)[C@@H](N)Cc1c[nH]c2ccccc12)[C@@H](C)O)C(=O)N[C@@H](CCCCN)C(=O)N[C@@H](CCCCN)C(=O)NCC(=O)N[C@@H](CCC(=O)O)C(=O)N1CCC[C@H]1C(=O)N[C@@H](CCSC)C(=O)N[C@@H](Cc1ccc(O)cc1)C(=O)O [compound 15] (H-WHTLKIKKGEPMY-OH; N-terminus and C-terminus assumed),<90,,<90,100,100,
CSCC[C@H](NC(=O)[C@@H]1CCCN1C(=O)[C@H](CCC(N)=O)NC(=O)CNC(=O)[C@@H]1CCCN1C(=O)[C@H](CCCCN)NC(=O)[C@H](CC(C)C)NC(=O)[C@H](CC(N)=O)NC(=O)[C@H](CC(C)C)NC(=O)[C@H](CC(C)C)NC(=O)[C@H](Cc1c[nH]cn1)NC(=O)[C@@H](N)CCCCN)C(=O)N[C@@H](Cc1ccc(O)cc1)C(=O)O [compound 113] (H-KHLLNLKPGQPMY-OH; N-terminus and C-terminus assumed),,,,<90,98.44,
CC[C@H](C)[C@H](NC(=O)CNC(=O)[C@H](Cc1c[nH]cn1)NC(=O)[C@@H](N)Cc1c[nH]c2ccccc12)C(=O)N[C@@H](CCC(N)=O)C(=O)N[C@@H](CC(C)C)C(=O)N[C@@H](Cc1ccccc1)C(=O)N[C@@H](CCCCN)C(=O)NCC(=O)N[C@@H](CCC(N)=O)C(=O)N1CCC[C@H]1C(=O)N[C@@H](CCSC)C(=O)N[C@@H](Cc1ccc(O)cc1)C(=O)O [compound 124] (H-WHGIQLFKGQPMY-OH; N-terminus and C-terminus assumed),,,,<90,100,
CSCC[C@H](NC(=O)[C@@H]1CCCN1C(=O)[C@H](CCC(=O)O)NC(=O)CNC(=O)[C@@H]1CCCN1C(=O)[C@H](CCCCN)NC(=O)[C@H](Cc1ccccc1)NC(=O)[C@H](CCC(N)=O)NC(=O)CNC(=O)[C@H](CC(C)C)NC(=O)[C@H](Cc1c[nH]cn1)NC(=O)[C@@H](N)Cc1c[nH]c2ccccc12)C(=O)N[C@@H](Cc1ccc(O)cc1)C(=O)O [compound 171] (H-WHLGQFKPGEPMY-OH; N-terminus and C-terminus assumed),,,,<90,<90,
CC[C@H](C)[C@H](NC(=O)[C@H](Cc1c[nH]c2ccccc12)NC(=O)[C@H](Cc1c[nH]cn1)NC(=O)[C@@H](N)Cc1c[nH]c2ccccc12)C(=O)N[C@@H](CC(N)=O)C(=O)N[C@@H](CC(C)C)C(=O)N[C@@H](Cc1c[nH]c2ccccc12)C(=O)N1CCC[C@H]1C(=O)NCC(=O)N[C@@H](CCC(N)=O)C(=O)N1CCC[C@H]1C(=O)N[C@@H](CCSC)C(=O)N[C@@H](Cc1ccc(O)cc1)C(=O)O [compound 114] (H-WHWINLWPGQPMY-OH; N-terminus and C-terminus assumed),,,,<90,100,
CC[C@H](C)[C@H](NC(=O)[C@H](CCSC)NC(=O)[C@H](Cc1c[nH]cn1)NC(=O)[C@@H](N)CCCCN)C(=O)N[C@@H](CCC(N)=O)C(=O)N[C@@H](CC(C)C)C(=O)N[C@@H](Cc1ccc(O)cc1)C(=O)N[C@@H](Cc1c[nH]c2ccccc12)C(=O)NCC(=O)N[C@@H](CCC(N)=O)C(=O)N1CCC[C@H]1C(=O)N[C@@H](CCSC)C(=O)N[C@@H](Cc1ccc(O)cc1)C(=O)O [compound 54] (H-KHMIQLYWGQPMY-OH; N-terminus and C-terminus assumed),<90,<90,93.21,100,100,
CSCC[C@H](NC(=O)[C@@H]1CCCN1C(=O)[C@H](CCC(N)=O)NC(=O)CNC(=O)[C@H](CC(C)C)NC(=O)[C@H](CCCCN)NC(=O)[C@H](CC(C)C)NC(=O)[C@H](CCC(N)=O)NC(=O)[C@H](CC(C)C)NC(=O)[C@@H](NC(=O)[C@H](CCCCN)NC(=O)[C@@H](N)CCCCN)C(C)C)C(=O)N[C@@H](Cc1ccc(O)cc1)C(=O)O [compound 115] (H-KKVLQLKLGQPMY-OH; N-terminus and C-terminus assumed),,,,<90,99.72,
CSCC[C@H](NC(=O)[C@@H]1CCCN1C(=O)[C@H](CCC(N)=O)NC(=O)CNC(=O)[C@@H]1CCCN1C(=O)[C@H](CCCCN)NC(=O)[C@H](CC(C)C)NC(=O)[C@H](CCC(=O)O)NC(=O)[C@H](CC(C)C)NC(=O)[C@H](Cc1ccccc1)NC(=O)[C@H](Cc1c[nH]cn1)NC(=O)[C@@H](N)CCCCN)C(=O)N[C@@H](Cc1ccc(O)cc1)C(=O)O [compound 179] (H-KHFLELKPGQPMY-OH; N-terminus and C-terminus assumed),,,,<90,<90,
CSCC[C@H](NC(=O)[C@@H]1CCCN1C(=O)[C@H](CCC(N)=O)NC(=O)CNC(=O)[C@@H]1CCCN1C(=O)[C@H](CCCCN)NC(=O)[C@H](Cc1ccccc1)NC(=O)[C@H](CCCCN)NC(=O)[C@H](CC(C)C)NC(=O)[C@H](Cc1ccc(O)cc1)NC(=O)[C@H](Cc1c[nH]cn1)NC(=O)[C@@H](N)CCCCN)C(=O)N[C@@H](Cc1ccc(O)cc1)C(=O)O [compound 72] (H-KHYLKFKPGQPMY-OH; N-terminus and C-terminus assumed),<90,98.60,100,100,100,active
